# Test results: patent US9333202B2, “Non-retinoid antagonists for treatment of age-related macular degeneration and stargardt disease” (THE TRUSTEES OF COLUMBIA UNIVERSITY IN THE CITY OF NEW YORK, priority 2012, dated 2016)
# Biological target: RBP4-TTR interaction (Homo sapiens, UniProt P02753)
# Assay: HTRF/TR-FRET assay for retinol-dependent RBP4-TTR interaction (1 μM retinol)
# Type: biochemical
# Parameters: human RBP4 fragment (amino acids 19-201) was expressed in the Gold(DE3)pLysS E. coli strain; made in house; host or cells: E. coli Gold(DE3)pLysS (Stratagene), pMAL-c4x vector
# Description: Bacterially expressed MBP-RBP4 and untagged TTR were used in this assay. For the use in the TR-FRET assay the maltose binding protein (MBP)-tagged human RBP4 fragment (amino acids 19-201) was expressed in the Gold(DE3)pLysS E. coli strain (Stratagene) using the […] vector. Following cell lysis, recombinant RBP4 was purified from the soluble fraction using the ACTA FPLC system (GE Healthcare) equipped with the 5-ml the MBP Trap HP column. Human untagged TTR was purchased from Calbiochem. Untagged TTR was labeled directly with Eu^3+ Cryptate-NHS using the HTRF Cryptate Labeling kit from CisBio following the manufacturer's recommendations. HTRF assay was performed in white low volume 384 well plates (Greiner-Bio) in a final assay volume of 16 μl per well. The reaction buffer contained 10 mM Tris-HCl pH 7.5, 1 mM DTT, 0.05% NP-40, 0.05% Prionex, 6% glycerol, and 400 mM KF. Each reaction contained 60 nM MBP-RBP4 and 2 nM TTR-Eu along with 26.7 nM of anti-MBP antibody conjugated with d2 (Cisbio). Titration of test compounds in this assay was conducted in the presence of 1 μM retinol. All reactions were assembled in the dark under dim red light and incubated overnight at +4° C. wrapped in aluminum foil. TR-FRET signal was measured in the SpectraMax M5e Multimode Plate Reader (Molecular Device). Fluorescence was excited at 337 nm and two readings per well were taken: Reading 1 for time-gated energy transfer from Eu(K) to d2 (337 nm excitation, 668 nm emission, counting delay 75 microseconds, counting window 100 microseconds) and Reading 2 for Eu(K) time-gated fluorescence (337 nm excitation, 620 nm emission, counting delay 400 microseconds, counting window 400 microseconds). The TR-FRET signal was expressed as the ratio of fluorescence intensity: Flu665/Flu620×10,000.
row,Structure (SMILES),Antagonism of RBP4-TTR interaction in vitro (in words)
1,FC(F)(F)c1cccc(CCN2CCN(c3ncccc3C(F)(F)F)CC2)c1 [Compound 17],antagonize RBP4-TTR interaction in vitro at biologically significant concentrations
2,FC(F)(F)c1cccc(CCN2CCN(c3ncnc4sc5c(c34)CCC5)CC2)c1 [Compound 20],antagonize RBP4-TTR interaction in vitro at biologically significant concentrations
3,FC(F)(F)c1cccc(CN2CCN(c3ncnc4sc5c(c34)CCC5)CC2)c1 [Compound 21],antagonize RBP4-TTR interaction in vitro at biologically significant concentrations
4,O=C(Cc1ccccc1C(F)(F)F)N1CCN(c2ncnc3sc4c(c23)CCC4)CC1 [Compound 22],antagonize RBP4-TTR interaction in vitro at biologically significant concentrations
5,O=C(c1ccc(C(F)(F)F)cc1F)N1CCC(c2ccccc2C(F)(F)F)CC1 [Compound 32],antagonize RBP4-TTR interaction in vitro at biologically significant concentrations
6,O=C(c1ccc(C(F)(F)F)c(F)c1)N1CCC(c2ccccc2C(F)(F)F)CC1 [Compound 33],antagonize RBP4-TTR interaction in vitro at biologically significant concentrations
7,O=C(c1cccc(C(F)(F)F)c1)N1CCC(c2ccccc2C(F)(F)F)CC1 [Compound 34],antagonize RBP4-TTR interaction in vitro at biologically significant concentrations
8,O=C(c1ccc(F)c(C(F)(F)F)c1)N1CCC(c2ccccc2C(F)(F)F)CC1 [Compound 35],antagonize RBP4-TTR interaction in vitro at biologically significant concentrations
9,O=C(c1ccc(Cl)c(C(F)(F)F)c1)N1CCC(c2ccccc2C(F)(F)F)CC1 [Compound 36],antagonize RBP4-TTR interaction in vitro at biologically significant concentrations
10,COC(=O)c1cccc(C(=O)N2CCC(c3ccccc3C(F)(F)F)CC2)c1 [Compound 37],antagonize RBP4-TTR interaction in vitro at biologically significant concentrations
11,O=C(Cc1ccccc1C(F)(F)F)N1CCC(c2ccccc2C(F)(F)F)CC1 [Compound 38],antagonize RBP4-TTR interaction in vitro at biologically significant concentrations
12,O=C(c1ccnc(C(F)(F)F)c1)N1CCC(c2ccccc2C(F)(F)F)CC1 [Compound 39],antagonize RBP4-TTR interaction in vitro at biologically significant concentrations
13,O=C(c1cnccc1C(F)(F)F)N1CCC(c2ccccc2C(F)(F)F)CC1 [Compound 40],antagonize RBP4-TTR interaction in vitro at biologically significant concentrations
14,O=C(c1cc(C(F)(F)F)ccn1)N1CCC(c2ccccc2C(F)(F)F)CC1 [Compound 41],antagonize RBP4-TTR interaction in vitro at biologically significant concentrations
15,FC(F)(F)c1ccccc1C1CCN(c2ncccn2)CC1 [Compound 42],antagonize RBP4-TTR interaction in vitro at biologically significant concentrations
16,Cc1ccnc(N2CCC(c3ccccc3C(F)(F)F)CC2)n1 [Compound 43],antagonize RBP4-TTR interaction in vitro at biologically significant concentrations
17,FC(F)(F)c1ccnc(N2CCC(c3ccccc3C(F)(F)F)CC2)n1 [Compound 44],antagonize RBP4-TTR interaction in vitro at biologically significant concentrations
18,COC(=O)c1cc(C)nc(N2CCC(c3ccccc3C(F)(F)F)CC2)n1 [Compound 45],antagonize RBP4-TTR interaction in vitro at biologically significant concentrations
19,FC(F)(F)c1ccccc1C1CCN(c2nccc(-c3ccccc3)n2)CC1 [Compound 46],antagonize RBP4-TTR interaction in vitro at biologically significant concentrations
20,Fc1cnc(N2CCC(c3ccccc3C(F)(F)F)CC2)nc1 [Compound 47],antagonize RBP4-TTR interaction in vitro at biologically significant concentrations
